Data: patent publication US4450279A, “Dialkylthioxanthones” (priority 1981, dated 1984)
≈ marks a conversion by molar mass, not a printed value. Like-named read-outs stand apart in the source and are kept apart here.

Experiments:
[1] = Hardening time of photopolymerizable resin film under continuous xenon lamp irradiation (until surface ceases to be sticky)
Description: Bisphenol A diglycidyl ether diacrylate
(§1) Trimethylolpropane triacrylate
Triethanolamine 2.5 parts by weight
Photopolymerization initiator of formula (I)
(dialkylthioxanthone derivative)
Irradiation device and conditions: […]

[2] = Yellowing resistance of coating film after irradiation, estimated visually; design: key: A: Only slight yellowing; B: Clear yellowing; C: Remarkable yellowing
Description: The above photopolymerizable resin composition was applied to a glass plate in a thickness of 25μ and left 9 cm below a xenone lamp. The sensitivity was judged by measuring the time until the surface of the coated film ceases to be sticky (whether the coated film is sticky or not is judged by the touch with finger) under the continuous irradiation.
*^1 Yellowing resistance in the above table was estimated
visually from the state of the coating film after the

[3] = Solubility in organic solvents; format: physicochemical; conditions: organic solvent or mixture
[4] = unsubstituted thioxanthone, background; cited from earlier work
[5] = dispersed in resin, storage for a long period; background; cited from earlier work
[6] = Yellowing resistance of pigmented coating film; design: key: A: Only slight yellowing; B: Clear yellowing; C: Remarkable yellowing; conditions: Table V; composition (B), titanium oxide; same criteria as Table II
Experimental: (§2) The following photopolymerizable resin compositions (A) and (B) were prepared. Each of the compositions was applied to an aluminum plate in a thickness of 25μ. The aluminum plate was placed on a belt conveyer moving 20 cm below an 80 W/cm high-pressure mercury lamp at a speed of 18 m/min. Relationship between the number of passage times and physical properties of the coating film was examined to obtain the results shown in Table V.
(§3) (B) Titanium oxide-containing
(§4) Urethane acrylate resin
as §1
(§5) Butyl acrylate 18.8 parts by weight
(§6) Vinylpyrrolidone 9.4 parts by weight
(§7) Titanium oxide (rutile type)
(§8) Methyldiethanolamine 1.5 parts by weight
(§9) Photopolymerization initiator of
*^3 Yellowing resistance was estimated based on the same criteria as i

[7] = Pencil hardness of pigmented coating film after passing under high-pressure mercury lamp (JIS K 5400); conditions: for Pencil hardness after passing 3 times / Pencil hardness after passing 5 times: composition (A), carbon black; for Pencil hardness after passing 3 times: 3 passages; for Pencil hardness after passing 5 times: 5 passages; for Pencil hardness after passing 6 times: composition (B), titanium oxide, 6 passages
Experimental: as §2
(A) Carbon black-containing composition:
Epoxy acrylate resin (Shell
as §1
Hexanediol diacrylate 14.8 parts by weight
Carbon black 2.5 parts by weight
Methyldiethanolamine 2.0 parts by weight
as §9, §3, §4, §5, §6, §7, §8
*^2 Pencil hardness was determined according to JISK 5400 6, 14.

[8] = Hardening of trifunctional maleimide photopolymerizable resin film under high-pressure mercury lamp; conditions: 2.5 parts per 100 parts resin; 50μ on glass; 80 W/cm Hg lamp, 10 cm, 20 sec
Experimental: 16 Parts of diglycerol triglycidyl ether, 23 parts by weight of α-phenylmaleimidoacetic acid, 0.2 part by weight of dimethylaminoethyl methacrylate and 40 parts by weight of butyl acetate were reacted together at 90°-100° C. for 2 h to obtain a trifunctional photopolymerizable resin in which α-phenylmaleimidoacetic acid was added to substantially all glycidyl groups. 2.5 Parts by weight of 2,4-diisopropylthioxanthone of the present invention was added to 100 parts by weight of the above resin and the whole was kneaded thoroughly and applied onto a glass plate in a thickness of 50μ. […] In case 2,4-diisopropylthioxanthone was not added, the film was not hardened even after 60 min.

[9] = Table III, Control Example 1, same criteria as Table II
[10] = 1,2-dichloroethane, read-out: Solubility, 1,2-Dichloroethane
[11] = 1,2-dichloropropane, read-out: Solubility, 1,2-Dichloropropane
[12] = acetone, read-out: Solubility, Acetone
[13] = ethanol, read-out: Solubility, Ethanol
[14] = ethyl acetate, read-out: Solubility, Ethyl acetate
[15] = methanol, read-out: Solubility, Methanol
[16] = toluene, read-out: Solubility, Toluene
[17] = Table II, 2.5 parts initiator, 2.5 parts triethanolamine, 25μ film on glass, xenon lamp 9 cm
[18] = Table II, visual, after irradiation

CCc1ccc(CC)c2c(=O)c3ccccc3sc12 [1,4-Diethylthioxanthone]
Hardening time ([1]; Table III, Control Example 1): 50 s
Yellowing resistance [2, 9]: A

CC(C)c1ccc(C(C)C)c2c(=O)c3ccccc3sc12 [1,4-Diisopropylthioxanthone]
Hardening time ([1]; Table III, Control Example 1): 50 s
Yellowing resistance [2, 9]: A

Cc1ccc(C)c2c(=O)c3ccccc3sc12 [1,4-Dimethylthioxanthone]
Hardening time ([1]; Table III, Control Example 1): 40 s
Yellowing resistance [2, 9]: B

CCc1c(C(C)C)ccc2sc3ccccc3c(=O)c12 [1-Ethyl-2-isopropylthioxanthone]
Hardening time ([1]; Table III, Control Example 1): 50 s
Yellowing resistance [2, 9]: A

CCc1ccc2sc3ccccc3c(=O)c2c1C [1-Methyl-2-ethylthioxanthone]
Hardening time ([1]; Table III, Control Example 1): > 60 s

CCc1ccc(C)c2c(=O)c3ccccc3sc12 [1-Methyl-4-ethylthioxanthone]
Hardening time ([1]; Table III, Control Example 1): 50 s
Yellowing resistance [2, 9]: B

O=c1c2ccccc2sc2ccccc12 [Compound 1, thioxanthone]
solubility [3, 10]: 11 mg/mL (≈ 51.8 mM)
solubility [3, 11]: < 5 mg/mL
solubility [3, 12]: < 5 mg/mL
solubility [3, 13]: < 5 mg/mL
solubility [3, 14]: 5 mg/mL (≈ 23.6 mM)
solubility [3, 15]: < 5 mg/mL
solubility [3, 16]: < 5 mg/mL
Hardening time ([1]; Table III, Control Example 1): > 60 s
Solubility in and compatibility with photopolymerizable compound [4]: poor solubility
Crystallization during storage [5]: crystallizes out during the storage for a long period of time

Cc1ccc2sc3ccccc3c(=O)c2c1 [Compound 2, 2-methylthioxanthone]
solubility [3, 10]: 166 mg/mL (≈ 734 mM)
solubility [3, 11]: 77 mg/mL (≈ 340 mM)
solubility [3, 12]: 30 mg/mL (≈ 133 mM)
solubility [3, 13]: < 10 mg/mL
solubility [3, 14]: 29 mg/mL (≈ 128 mM)
solubility [3, 15]: < 10 mg/mL
solubility [3, 16]: 55 mg/mL (≈ 243 mM)

CC(C)c1ccc2sc3ccccc3c(=O)c2c1 [Compound 3, 2-isopropylthioxanthone]
solubility [3, 10]: > 500 mg/mL
solubility [3, 11]: > 500 mg/mL
solubility [3, 12]: 300 mg/mL (≈ 1180 mM)
solubility [3, 13]: 36 mg/mL (≈ 142 mM)
solubility [3, 14]: 300 mg/mL (≈ 1180 mM)
solubility [3, 15]: 33 mg/mL (≈ 130 mM)
solubility [3, 16]: > 500 mg/mL

CCc1cc(CC)c2sc3ccccc3c(=O)c2c1 [Example 1, 2,4-diethylthioxanthone]
Hardening time [1, 17]: 15 s
Yellowing resistance [6]: A
Pencil hardness after passing 3 times [7]: 3H
Pencil hardness after passing 5 times [7]: 6H
Pencil hardness after passing 6 times [7]: 3H
Yellowing resistance [2, 18]: A

CC(C)c1cc(C(C)C)c2sc3ccccc3c(=O)c2c1 [Example 2, 2,4-diisopropylthioxanthone]
solubility [3, 10]: > 500 mg/mL
solubility [3, 11]: > 500 mg/mL
solubility [3, 12]: > 400 mg/mL
solubility [3, 13]: 90 mg/mL (≈ 304 mM)
solubility [3, 14]: > 500 mg/mL
solubility [3, 15]: 60 mg/mL (≈ 202 mM)
solubility [3, 16]: > 500 mg/mL
Hardening time [1, 17]: 10 s
Yellowing resistance [6]: A
Pencil hardness after passing 3 times [7]: 4H
Pencil hardness after passing 5 times [7]: ≥ 6H
Pencil hardness after passing 6 times [7]: 4H
Hardened coating film [8]: coating film insoluble in dichloroethane or acetone
Yellowing resistance [2, 18]: A

Cc1cc(C(C)(C)C)cc2c(=O)c3ccccc3sc12 [Example 5, m-tert-butylmethyl thioxanthone]
Hardening time [1, 17]: 15 s
Yellowing resistance [2, 18]: A

CC(C)(C)c1cc(C(C)(C)C)c2sc3ccccc3c(=O)c2c1 [Example 10, 2,4-di-tert-butylthioxanthone]
Hardening time [1, 17]: 25 s
Yellowing resistance [2, 18]: A

CC(C)c1ccc2sc3ccccc3c(=O)c2c1 [Isopropylthioxanthone]
Hardening time ([1]; Table III, Control Example 1): 20 s
Yellowing resistance [2, 9]: B

Ethylthioxanthone
Hardening time ([1]; Table III, Control Example 1): 40 s
Yellowing resistance [2, 9]: C

Methylthioxanthone
Hardening time ([1]; Table III, Control Example 1): 40 s
Yellowing resistance [2, 9]: C
